Results on 10 molecules are retold here after PubChem BioAssay (NCI).

Among the test systems are SN12C renal; EKVX NSCLC; NCI-H226 lung; BT-549 breast; T-47D breast; OVCAR-8 ovarian; SK-MEL-5 melanoma; HCT-15 colon; SK-MEL-2 melanoma; HOP-92 NSCLC.
Common to all, as to test: growth of human tumour cells (NCI), 48 h

Each structure is given as a SMILES string. Where “and” joins values, the source holds several entries; their conditions need not be identical. Equal values may be shown once.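 Exposure lasted 48 hours, with cells grown in 96-well plates and compounds tested at five concentrations. GI50: concentration for 50% inhibition of growth. TGI is the concentration that stops growth completely.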

For `COc1cc(/C=N/NC(=O)c2ccccc2Nc2cccc(C(F)(F)F)c2)cc(OC)c1OC`, the GI50 in the test on SN12C renal is 5.94 µM; with EKVX NSCLC, 3.08 µM; in the test on NCI-H226 lung, 7.45 µM; in the test on BT-549 breast, 2.3 µM; in the test with T-47D breast, 3.33 µM; in the test with OVCAR-8 ovarian, 4.81 µM. In addition, the GI50 was 2.93 µM in the test on SK-MEL-5 melanoma, 2.85 µM with HCT-15 colon and 9.63 µM with SK-MEL-2 melanoma. The TGI in the test on SN12C renal is 15.4 µM; in the test on EKVX NSCLC, 19.5 µM; with NCI-H226 lung it was 25.2 µM; in the test on BT-549 breast, 9.23 µM; in the test on T-47D breast, 13.5 µM; with OVCAR-8 ovarian, 11.6 µM. For the same molecule, the TGI in the test on SK-MEL-5 melanoma amounted to 10.8 µM; with HCT-15 colon, 13.2 µM; with SK-MEL-2 melanoma, 33.2 µM.

For `Oc1ccc(Cl)cc1/C=N\NC(=S)N/N=C/c1cc(Cl)ccc1O`, the GI50 in the test with SN12C renal was 3.12 µM; in the test with EKVX NSCLC, 3.23 µM; with NCI-H226 lung, 2.34 µM; in the test with T-47D breast, 2.73 µM; with HOP-92 NSCLC, 1.92 µM; with OVCAR-8 ovarian, 1.92 µM. For the same molecule, the GI50 was 1.34 µM in the test on SK-MEL-5 melanoma, 0.997 µM in the test with HCT-15 colon and 1.87 µM in the test on SK-MEL-2 melanoma. The TGI with SN12C renal was 64.7 µM; in the test with EKVX NSCLC, greater than 100 µM; in the test with NCI-H226 lung, 14.1 µM; in the test on T-47D breast it was 73.4 µM; in the test with HOP-92 NSCLC, 14.7 µM; in the test on OVCAR-8 ovarian, 17.7 µM. In addition, the values for the TGI in the test on SK-MEL-5 melanoma, in the test on HCT-15 colon and in the test with SK-MEL-2 melanoma were 3.88 µM, greater than 100 µM and 10.1 µM, respectively.

Regarding `CNC(c1ccncc1)C(NC)c1ccncc1` (centres undefined), the TGI in the test with SN12C renal, with EKVX NSCLC, in the test with NCI-H226 lung, in the test with BT-549 breast, in the test on T-47D breast and with OVCAR-8 ovarian was greater than 100 µM in each case. Also, the TGI in the test with SK-MEL-5 melanoma, in the test with HCT-15 colon and with SK-MEL-2 melanoma was greater than 100 µM each time.

On to `CCOC(=O)c1c(C)n(Cc2ccccc2)c2c1cc1oc(=O)c(=O)n3cnc2c13`, for which the GI50 in the test with SN12C renal was 10.4 µM; in the test with EKVX NSCLC it was 13 µM; in the test on NCI-H226 lung it was 20.3 µM; in the test on BT-549 breast it was 16.2 µM; with HOP-92 NSCLC, 2.83 µM; in the test on OVCAR-8 ovarian, 22.8 µM. Besides, the GI50 in the test on SK-MEL-5 melanoma is 10.4 µM; with HCT-15 colon it was 16.2 µM; with SK-MEL-2 melanoma, greater than 50 µM. Also, the TGI in the test on SN12C renal was 24.9 µM; with EKVX NSCLC it was 39.7 µM; in the test with NCI-H226 lung it was greater than 50 µM; in the test with BT-549 breast, 34.2 µM; with HOP-92 NSCLC it was 20.1 µM; in the test with OVCAR-8 ovarian, greater than 50 µM. The TGI with SK-MEL-5 melanoma was 26.7 µM; in the test with HCT-15 colon, greater than 50 µM; in the test with SK-MEL-2 melanoma, greater than 50 µM.

As for `CC1=C(N2CC2)C(=O)c2ccccc2C1=O`, the TGI with SN12C renal was 2.09 µM; in the test on EKVX NSCLC, 0.744 µM; with NCI-H226 lung it was 6.21 µM; in the test with T-47D breast, 28.7 µM; with OVCAR-8 ovarian, 2.82 µM; with SK-MEL-5 melanoma, 0.405 µM. The values for the TGI in the test with HCT-15 colon and in the test on SK-MEL-2 melanoma were 3.52 µM and 4.06 µM, respectively.

Consider `CC(=O)[C-](C(C)=O)c1ccccc1.CC(=O)[C-](C(C)=O)c1ccccc1.CC(=O)[C-](C(C)=O)c1ccccc1.[Cl-].[Zr+4]`, for which the GI50 in the test with SN12C renal was greater than 100 µM; with EKVX NSCLC, greater than 100 µM; with NCI-H226 lung, greater than 100 µM; in the test on HOP-92 NSCLC, 44.5 µM; in the test with OVCAR-8 ovarian, 57.5 µM; in the test on SK-MEL-5 melanoma, greater than 100 µM. Further, the GI50 in the test with HCT-15 colon and in the test on SK-MEL-2 melanoma was greater than 100 µM throughout. Also, the TGI with SN12C renal, in the test with EKVX NSCLC, in the test with NCI-H226 lung, with HOP-92 NSCLC, in the test with OVCAR-8 ovarian and in the test on SK-MEL-5 melanoma was greater than 100 µM each time. Also, the TGI in the test with HCT-15 colon and in the test on SK-MEL-2 melanoma was greater than 100 µM throughout.

With `S=c1c2ccccc2c(=S)n2n1CC=CC2`, the TGI in the test on SN12C renal, with EKVX NSCLC, in the test with NCI-H226 lung, with HOP-92 NSCLC, in the test on OVCAR-8 ovarian and with SK-MEL-5 melanoma was greater than 100 µM each time. For the same molecule, the TGI in the test with HCT-15 colon and in the test on SK-MEL-2 melanoma was greater than 100 µM throughout.

Regarding `COc1cc2c(cc1OCCCOc1ccc(-c3nc4ccc(N5CCN(C)CC5)cc4[nH]3)cc1)N=C[C@@H]1CCCN1C2=O`, the GI50 in the test on SN12C renal, with EKVX NSCLC, in the test with NCI-H226 lung, with BT-549 breast, in the test on T-47D breast and in the test with OVCAR-8 ovarian was less than 0.01 µM in each case. Further, the GI50 is less than 0.01 µM with SK-MEL-5 melanoma, less than 0.0212 µM in the test with HCT-15 colon and less than 0.01 µM in the test with SK-MEL-2 melanoma. Moreover, the TGI in the test with SN12C renal is less than 0.01 µM; in the test with EKVX NSCLC, less than 0.01 µM; with NCI-H226 lung, less than 0.01 µM; with BT-549 breast, less than 0.01 µM; in the test with T-47D breast, 15 µM; with OVCAR-8 ovarian it was less than 0.01 µM. Also, the results for the TGI with SK-MEL-5 melanoma, in the test with HCT-15 colon and in the test with SK-MEL-2 melanoma were less than 0.01 µM, 42.8 µM and less than 0.01 µM, respectively.

Take `Cc1c2ccncc2c(C)c2c1[nH]c1ccc(Cl)cc12`: the GI50 was 1.41 µM in the test with SN12C renal; 3.9 µM in the test with EKVX NSCLC; 8.58 µM in the test on NCI-H226 lung; 6.56 µM and 1.93 µM with HOP-92 NSCLC; 1.41 µM with HCT-15 colon. The TGI in the test on SN12C renal was 10.1 µM and 7.46 µM; in the test on EKVX NSCLC it was 12.6 µM and 19.3 µM; with NCI-H226 lung, 11 µM and 25.4 µM; with HOP-92 NSCLC, 17.5 µM and 9.11 µM; with OVCAR-8 ovarian, 4.35 µM and 2.62 µM; in the test on SK-MEL-5 melanoma, 13.8 µM. The TGI in the test on HCT-15 colon was 5.17 µM and 3.23 µM; with SK-MEL-2 melanoma it was 7.17 µM and 10.9 µM.

For `CC1=CC(=O)NP(=O)(C23CC4CC(CC(C4)C2)C3)N1` (centres undefined), the TGI in the test with SN12C renal, with EKVX NSCLC, in the test on NCI-H226 lung, in the test with HOP-92 NSCLC, in the test on OVCAR-8 ovarian and in the test on SK-MEL-5 melanoma was greater than 100 µM throughout. The TGI with HCT-15 colon and with SK-MEL-2 melanoma was greater than 100 µM each time.
